Test results published in patent US10925876B2, “Methods for using triazolo-pyrazinyl soluble guanylate cyclase activators in fibrotic disorders” (Merck Sharp & Dohme Corp., priority 2016, dated 2021).

Experiments:
[1] = test system: Spontaneously hypertensive rats (SHR); assay: Acute Efficacy in Spontaneously Hypertensive Rats (SHR), telemetry blood pressure; assay type: in vivo, rat; details: single oral gavage
Text: Spontaneously hypertensive rats (SHR, male, Charles River) were implanted with DSI TA11PA-C40 telemetry device (Data Sciences, Inc., St. Paul, Minn.) under isoflurane or ketamine/metomidine anesthesia. The telemetry unit catheter was inserted into the descending aorta via the femoral artery and the telemetry device was implanted subcutaneously in the left flank area. Animals were allowed to recover from surgery for 14 days before the start of any studies. Blood pressure, heart rate, and activity signals from conscious, freely moving rats were recorded continuously for 30 seconds every 10 minutes. On the day prior to administration of compound, a single oral dose of vehicle (10% transcutol/20% Cremophor/70% water) was administered to all animals to establish baseline control data. The blood pressure lowering efficacy of compound (PO) or vehicle was evaluated following a single oral gavage. Data were collected as hourly averages, and changes in blood pressure were calculated by subtracting control baseline data on an hourly basis. Animals were maintained on normal diet with a 12 hour light-dark cycle.
Maximum peak decreases of systolic blood pressure (SBP) in SHR at a particular P.O. dose (mpk milligrams per kilogram) for the following representative compounds are provided. Category A=SBP in SHRs <20 mmHg; Category B=SBP in SHRs 20-40 mmHg; Category C=SBP in SHRs >40 mmHg.

[2] = molecular target: T1, sGC α1/β1 heterodimer (Homo sapiens, UniProt Q02108+Q02153); assay: Cell-Based sGC Functional Assay (CASA Assay), cGMP generation in CHO-K1/sGC cells;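 note: reference Compound A is a published heme-dependent sGC activator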; details: maximum cGMP production of Compound A set to 100% activation, read-out: % Act. (percent activation relative to Compound A)
T1 construct: expressed in transfected cells
T1 sequence (Q02108 1-690): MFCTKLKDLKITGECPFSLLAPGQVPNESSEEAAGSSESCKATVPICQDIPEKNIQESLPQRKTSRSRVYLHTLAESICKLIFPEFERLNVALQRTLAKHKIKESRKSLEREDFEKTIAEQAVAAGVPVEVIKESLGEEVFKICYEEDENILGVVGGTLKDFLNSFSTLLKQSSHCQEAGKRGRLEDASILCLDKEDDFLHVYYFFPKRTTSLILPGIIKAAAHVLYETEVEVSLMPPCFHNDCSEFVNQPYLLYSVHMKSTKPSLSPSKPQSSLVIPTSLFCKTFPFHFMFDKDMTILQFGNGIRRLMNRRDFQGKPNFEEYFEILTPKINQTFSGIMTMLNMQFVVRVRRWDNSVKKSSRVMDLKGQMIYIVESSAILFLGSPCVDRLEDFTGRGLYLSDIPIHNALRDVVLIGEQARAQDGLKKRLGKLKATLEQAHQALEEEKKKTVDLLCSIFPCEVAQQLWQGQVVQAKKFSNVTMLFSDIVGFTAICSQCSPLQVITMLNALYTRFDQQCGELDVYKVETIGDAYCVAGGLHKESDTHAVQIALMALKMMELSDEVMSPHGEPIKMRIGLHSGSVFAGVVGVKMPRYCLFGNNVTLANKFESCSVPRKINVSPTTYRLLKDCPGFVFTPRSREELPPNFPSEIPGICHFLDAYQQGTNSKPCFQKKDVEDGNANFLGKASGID
T1 sequence (Q02153 1-619): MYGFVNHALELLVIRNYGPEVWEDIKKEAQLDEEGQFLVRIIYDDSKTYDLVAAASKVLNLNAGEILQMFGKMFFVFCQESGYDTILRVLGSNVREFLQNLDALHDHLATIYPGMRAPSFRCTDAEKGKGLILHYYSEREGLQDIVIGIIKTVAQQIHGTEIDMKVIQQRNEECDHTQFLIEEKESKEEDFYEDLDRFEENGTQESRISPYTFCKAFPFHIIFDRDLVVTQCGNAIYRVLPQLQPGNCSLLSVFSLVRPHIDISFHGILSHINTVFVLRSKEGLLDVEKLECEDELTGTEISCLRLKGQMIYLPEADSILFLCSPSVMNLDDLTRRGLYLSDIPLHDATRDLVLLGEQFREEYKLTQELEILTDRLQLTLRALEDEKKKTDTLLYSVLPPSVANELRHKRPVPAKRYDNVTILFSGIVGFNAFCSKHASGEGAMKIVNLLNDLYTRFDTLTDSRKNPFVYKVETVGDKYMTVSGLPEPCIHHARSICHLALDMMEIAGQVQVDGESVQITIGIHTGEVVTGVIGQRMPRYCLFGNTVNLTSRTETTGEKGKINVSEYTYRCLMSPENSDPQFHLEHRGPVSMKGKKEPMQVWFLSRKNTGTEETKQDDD
Method in brief: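 Intracellular cGMP quantified by HTRF competition after 1 h, 37 °C compound exposure, with or without 1 μM DETA-NO, in stable CHO-K1/sGC α1/β1 cells (4×10^5/mL; buffer with 0.5 mM IBMX, 5 mM MgCl2, 10 mM HEPES, 0.05% BSA; 2.5% DMSO). Activation normalized to reference Compound A maximum; 4P fit.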

Emax [2] [%]	SMILES	Maximum peak decrease of systolic blood pressure (SBP) in SHR, Cat. ([1]; P.O. 0.3 mpk)	Maximum peak decrease of systolic blood pressure (SBP) in SHR, Cat. ([1]; P.O. 1 mpk)	Maximum peak decrease of systolic blood pressure (SBP) in SHR, Cat. ([1]; P.O. 3 mpk)
177	CCCCc1nc(-c2nc(N)c3c(n2)NC(=O)C3(C)c2ccc(F)cn2)cn2ncnc12 (stereo not drawn) [Example 61B, 4-amino-2-(8-butyl-[1,2,4]triazolo[1,5-a]pyrazin-6-yl)-5-(5-fluoropyridin-2-yl)-5-methyl-5H-pyrrolo[2,3-d]pyrimidin-6(7H)-one]	C (Category C=SBP in SHRs >40 mmHg)		
104	CCCCc1nc(-c2nc(N)c3c(n2)NC(=O)C3(c2ccc(F)c(F)c2)C2CC2)cn2ncnc12 (stereo not drawn) [Example 65A, 4-amino-2-(8-butyl-[1,2,4]triazolo[1,5-a]pyrazin-6-yl)-5-cyclopropyl-5-(3,4-difluorophenyl)-5H-pyrrolo[2,3-d]pyrimidin-6(7H)-one]	C (Category C=SBP in SHRs >40 mmHg)		
119	CCCCc1nc(-c2nc(N)c3c(n2)NC(=O)C3(C)c2ccc(C(F)(F)F)cn2)cn2ncnc12 (stereo not drawn) [Example 67B, 4-amino-2-(8-butyl-[1,2,4]triazolo[1,5-a]pyrazin-6-yl)-5-methyl-5-(5-(trifluoromethyl)pyridin-2-yl)-5H-pyrrolo[2,3-d]pyrimidin-6(7H)-one]	B (Category B=SBP in SHRs 20-40 mmHg)		
101	CC(C)Cc1nc(-c2nc(N)c3c(n2)NC(=O)[C@@]3(C)c2ccc(F)cc2)cn2ncnc12 [Example 73A, (S)-4-amino-5-(4-fluorophenyl)-2-(8-isobutyl-[1,2,4]triazolo[1,5-a]pyrazin-6-yl)-5-methyl-5,7-dihydro-6H-pyrrolo[2,3-d]pyrimidin-6-one]		B (Category B=SBP in SHRs 20-40 mmHg)	
110	C[C@@]1(c2ccc(F)cc2)C(=O)Nc2nc(-c3cn4ncnc4c(CCC(F)(F)F)n3)nc(N)c21 [Example 74A, (S)-4-amino-5-(4-fluorophenyl)-5-methyl-2-(8-(3,3,3-trifluoropropyl)-[1,2,4]triazolo[1,5-a]pyrazin-6-yl)-5,7-dihydro-6H-pyrrolo[2,3-d]pyrimidin-6-one]		B (Category B=SBP in SHRs 20-40 mmHg)	
120	CC1(c2ccc(Cl)cc2)C(=O)Nc2nc(-c3cn4ncnc4c(CCC(F)(F)F)n3)nc(N)c21 (stereo not drawn) [Example 76A, 4-amino-5-(4-chlorophenyl)-5-methyl-2-(8-(3,3,3-trifluoropropyl)-[1,2,4]triazolo[1,5-a]pyrazin-6-yl)-5H-pyrrolo[2,3-d]pyrimidin-6(7H)-one]	A (Category A=SBP in SHRs <20 mmHg)		
112	CC1(c2ccc(C(F)(F)F)cc2)C(=O)Nc2nc(-c3cn4ncnc4c(CCC(F)(F)F)n3)nc(N)c21 (stereo not drawn) [Example 77B, 4-amino-5-methyl-5-(4-(trifluoromethyl)phenyl)-2-(8-(3,3,3-trifluoropropyl)-[1,2,4]triazolo[1,5-a]pyrazin-6-yl)-5H-pyrrolo[2,3-d]pyrimidin-6(7H)-one]		A (Category A=SBP in SHRs <20 mmHg)	
83	CC1(c2ccc(C(F)(F)F)cn2)C(=O)Nc2nc(-c3cn4ncnc4c(CCC(F)(F)F)n3)nc(N)c21 (stereo not drawn) [Example 78B, 4-amino-5-methyl-5-(5-(trifluoromethyl)pyridin-2-yl)-2-(8-(3,3,3-trifluoropropyl)-[1,2,4]triazolo[1,5-a]pyrazin-6-yl)-5H-pyrrolo[2,3-d]pyrimidin-6(7H)-one]			B (Category B=SBP in SHRs 20-40 mmHg)

Continued, molecule first:

SMILES	Emax [2] [%]	Maximum peak decrease of systolic blood pressure (SBP) in SHR, Cat. ([1]; P.O. 0.3 mpk)	Maximum peak decrease of systolic blood pressure (SBP) in SHR, Cat. ([1]; P.O. 1 mpk)	Maximum peak decrease of systolic blood pressure (SBP) in SHR, Cat. ([1]; P.O. 3 mpk)
Nc1nc(-c2cn3ncnc3c(CCCC(F)(F)F)n2)nc2c1C(c1ccc(Cl)c(F)c1)(C1CC1)C(=O)N2 (stereo not drawn) [Example 33A, 4-amino-5-(4-chloro-3-fluorophenyl)-5-cyclopropyl-2-(8-(4,4,4-trifluorobutyl)-[1,2,4]triazolo[1,5-a]pyrazin-6-yl)-5H-pyrrolo[2,3-d]pyrimidin-6(7H)-one]	107	C (Category C=SBP in SHRs >40 mmHg)		
Nc1nc(-c2cn3ncnc3c(CCCC(F)(F)F)n2)nc2c1C(c1ccc(F)cn1)(C1CC1)C(=O)N2 (stereo not drawn) [Example 34A, 4-amino-5-cyclopropyl-5-(5-fluoropyridin-2-yl)-2-(8-(4,4,4-trifluorobutyl)-[1,2,4]triazolo[1,5-a]pyrazin-6-yl)-5H-pyrrolo[2,3-d]pyrimidin-6(7H)-one]	235	C (Category C=SBP in SHRs >40 mmHg)		
CC1(c2ccccn2)C(=O)Nc2nc(-c3cn4ncnc4c(CCCC(F)(F)F)n3)nc(N)c21 (stereo not drawn) [Example 36B, 4-amino-5-methyl-5-(pyridin-2-yl)-2-(8-(4,4,4-trifluorobutyl)-[1,2,4]triazolo[1,5-a]pyrazin-6-yl)-5H-pyrrolo[2,3-d]pyrimidin-6(7H)-one]	82		B (Category B=SBP in SHRs 20-40 mmHg)	
COc1ccc(C2(C3CC3)C(=O)Nc3nc(-c4cn5ncnc5c(CCCC(F)(F)F)n4)nc(N)c32)nc1 (stereo not drawn) [Example 39A, 4-amino-5-cyclopropyl-5-(5-methoxypyridin-2-yl)-2-(8-(4,4,4-trifluorobutyl)-[1,2,4]triazolo[1,5-a]pyrazin-6-yl)-5H-pyrrolo[2,3-d]pyrimidin-6(7H)-one]	96	B (Category B=SBP in SHRs 20-40 mmHg)		
Nc1nc(-c2cn3ncnc3c(CCCC(F)(F)F)n2)nc2c1C(c1ncc(Cl)cn1)(C1CC1)C(=O)N2 (stereo not drawn) [Example 41A, 4-amino-5-(5-chloropyrimidin-2-yl)-5-cyclopropyl-2-(8-(4,4,4-trifluorobutyl)-[1,2,4]triazolo[1,5-a]pyrazin-6-yl)-5H-pyrrolo[2,3-d]pyrimidin-6(7H)-one]	151	B (Category B=SBP in SHRs 20-40 mmHg)		
CCCc1nc(-c2nc(N)c3c(n2)NC(=O)C3(c2ccc(C(F)(F)F)cn2)C2CC2)cn2ncnc12 (stereo not drawn) [Example 56A, 4-amino-5-cyclopropyl-2-(8-propyl-[1,2,4]triazolo[1,5-a]pyrazin-6-yl)-5-(5-(trifluoromethyl)pyridin-2-yl)-5H-pyrrolo[2,3-d]pyrimidin-6(7H)-one]	81			B (Category B=SBP in SHRs 20-40 mmHg)
CCCCc1nc(-c2nc(N)c3c(n2)NC(=O)[C@@]3(C)c2ccc(F)cc2)cn2ncnc12 [Example 60A, (S)-4-amino-2-(8-butyl-[1,2,4]triazolo[1,5-a]pyrazin-6-yl)-5-(4-fluorophenyl)-5-methyl-5,7-dihydro-6H-pyrrolo[2,3-d]pyrimidin-6-one]	121	C (Category C=SBP in SHRs >40 mmHg)		
